From BindingDB's records for doi:10.1021/jm00124a025 (Smith Kline & French Laboratories, 1989) come the findings set out here.

The experiment concerns the target Vasopressin V2 receptor (Canis lupus familiaris). Put plainly: Binding affinity of compound towards Vasopressin receptor by binding [3H]LVP to dog renal medullary preparation.

SMILES strings stand for the structures.

The compound `CCOc1ccc(C[C@@H]2NC(=O)CC3(CCC(C)CC3)SSC[C@H](C(=O)N[C@@H](CCCN=C(N)N)C(=O)N[C@@H](CCCN=C(N)N)C(N)=O)NC(=O)[C@H](CC(N)=O)NC(=O)[C@H](C(C)C)NC(=O)[C@H](Cc3ccccc3)NC2=O)cc1` (some centres not stated) [19-Benzyl-13-carbamoylmethyl-22-(4-ethoxy-benzyl)-16-isopropyl-3-methyl-12,15,18,21,24-pentaoxo-7,8-dithia-11,14,17,20,23-pentaaza-spiro[5.19]pentacosane-10-carboxylic acid [1-(1-carbamoyl-4-guanidino-butylcarbamoyl)-4-guanidino-butyl]-amide] came in with a Ki of 0.7 nM.

As for `CCOc1ccc(C[C@@H]2NC(=O)CC3(CCCCC3)SSC[C@H](C(=O)N[C@@H](CCCN=C(N)N)C(=O)N[C@@H](CCCN=C(N)N)C(N)=O)NC(=O)[C@@H](CC(N)=O)NC(=O)[C@H](C(C)C)NC(=O)[C@@H](Cc3ccccc3)NC2=O)cc1` [19-Benzyl-13-carbamoylmethyl-22-(4-ethoxy-benzyl)-16-isopropyl-12,15,18,21,24-pentaoxo-7,8-dithia-11,14,17,20,23-pentaaza-spiro[5.19]pentacosane-10-carboxylic acid [1-(1-carbamoyl-4-guanidino-butylcarbamoyl)-4-guanidino-butyl]-amide], the Ki is 0.5 nM.
